# From patent publication US9302999B2, “Substituted triazoles as herbicides” (E. I. DU PONT DE NEMOURS AND COMPANY, priority 2012, dated 2016)
# How the values were obtained:
# Type in all cases: in vivo
# [1] = system: chickweed (common chickweed, Stellaria media); assay: Test C postemergence: chickweed
# Procedure, shortened: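 Seedlings are raised in pots of peat-based medium to 2–18 cm (1- to 4-leaf stage). The formulated compound is then applied postemergence. Plants stay in the greenhouse for 13 to 15 days and are rated visually against controls, where 0 means no effect and 100 complete control.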
# [2] = system: morningglory (Ipomoea spp.); assay: Test A pre-/postemergence: morningglory
# Procedure, shortened: (§1)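 Seeds were sown in loam/sand blend and sprayed preemergence (directed soil spray) and, simultaneously, postemergence at 2–10 cm, one- to two-leaf stage, using compounds in non-phytotoxic solvent with surfactant. After ~10 days in greenhouse, injury was rated visually versus untreated controls, 0 (no effect) to 100 (complete control).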
# [3] = system: barnyardgrass (Echinochloa crus-galli); assay: Test A pre-/postemergence: barnyardgrass
# Procedure, shortened: as §1
# corn (Zea mays) = assay: Test C pre-/postemergence: corn
# Procedure, shortened: (§2)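 Visual injury scored 0–100 (100 = complete control) against untreated controls after 13–15 greenhouse days. Surfactant-containing solvent formulations applied either to soil after sowing (loam/sand) or over 1- to 4-leaf plants, 2–18 cm tall.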
# [4] = system: ducksalad (Heteranthera limosa); assay: Test B flooded paddy: ducksalad; settings: Flood; 250 g ai/ha; applied to paddy water at 2-leaf stage; visually evaluated after 13 to 15 days
# Procedure, shortened: (§3)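 At two leaves, seedlings received the test compound via the paddy water, pots having been flooded 3 cm over the soil surface and kept so. Greenhouse-held for 13 to 15 days, then judged by eye against controls on a scale running 0 (no effect) to 100 (complete control).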
# [5] = system: barnyardgrass (Echinochloa crus-galli); assay: Test B flooded paddy: barnyardgrass; settings: Flood; 250 g ai/ha; applied to paddy water at 2-leaf stage; visually evaluated after 13 to 15 days
# Procedure, shortened: as §3
# [6] = system: foxtail, giant (giant foxtail, Setaria faberii); assay: Test C pre-/postemergence: foxtail, giant
# Procedure, shortened: as §2
# kochia (Kochia scoparia) = assay: Test C pre-/postemergence: kochia; settings: Postemergence
# Procedure, shortened: as §2
# soybean (Glycine max) = assay: Test C pre-/postemergence: soybean
# Procedure, shortened: as §2
# [7] = system: velvetleaf (Abutilon theophrasti); assay: Test A pre-/postemergence: velvetleaf; settings: Postemergence
# Procedure, shortened: as §1
# [8] = system: large crabgrass (Digitaria sanguinalis); assay: Test C pre-/postemergence: large crabgrass
# Procedure, shortened: as §2
# [9] = 31 g ai/ha, scale 0 to 100 (0 no effect, 100 complete control)
# [10] = 62 g ai/ha, scale 0 to 100 (0 no effect, 100 complete control)
# [11] = 125 g ai/ha, scale 0 to 100, 0 no effect, 100 complete control
# [12] = Postemergence, 125 g ai/ha, 0 to 100 scale, 0 is no effect, 100 is complete control
# [13] = Postemergence, 500 g ai/ha, visual rating on 0 to 100 scale (0 no effect, 100 complete control), approximately ten days
# [14] = Preemergence, 125 g ai/ha, 0 to 100 scale where 0 is no effect and 100 is complete control
# [15] = Preemergence, 500 g ai/ha, 0 to 100 scale (0 no effect, 100 complete control)
# [16] = Postemergence, 31 g ai/ha, scale 0 to 100 (0 no effect, 100 complete control)
# [17] = Postemergence, 62 g ai/ha, scale 0 to 100 (0 no effect, 100 complete control)
# [18] = Postemergence, 125 g ai/ha, scale 0 to 100, 0 no effect, 100 complete control
# [19] = Postemergence, 250 g ai/ha, scale 0 to 100
# [20] = Preemergence, 31 g ai/ha, scale of 0 to 100, 0 is no effect, 100 is complete control
# [21] = Preemergence, 62 g ai/ha, scale of 0 to 100, 0 is no effect, 100 is complete control
# [22] = Preemergence, 125 g ai/ha, scale 0 to 100, 0 no effect, 100 complete control
# [23] = Preemergence, 250 g ai/ha, scale 0 to 100, 0 no effect, 100 complete control
structure (smiles),measurement,setting,value
CCc1nn(-c2ccc(C(F)(F)F)cc2)nc1Cc1ccnc(C(F)(F)F)c1 [Compound 155],"Plant response rating, Chickweed",[1]; [9],50
same,"Plant response rating, Chickweed",[1]; [10],70
same,"Plant response rating, Chickweed",[1]; [11],95
same,"Plant response rating, Chickweed","[1]; 250 g ai/ha, scale 0 to 100",100
same,"Plant response rating, Morningglory",[2]; [12],90
same,Morningglory plant response rating,[2]; [13],100
same,"Plant response rating, Morningglory",[2]; [14],80
same,"Plant response rating, Morningglory",[2]; [15],90
same,"Plant response rating, Barnyardgrass",[3]; [12],90
same,Barnyardgrass plant response rating,[3]; [13],90
same,"Plant response rating, Barnyardgrass",[3]; [14],100
same,"Plant response rating, Barnyardgrass",[3]; [15],100
same,"Plant response rating, Corn",corn (Zea mays); [16],25
same,"Plant response rating, Corn",corn (Zea mays); [17],25
same,"Plant response rating, Corn",corn (Zea mays); [18],45
same,"Plant response rating, Corn",corn (Zea mays); [19],45
same,"Plant response rating, Corn",corn (Zea mays); [20],5
same,"Plant response rating, Corn",corn (Zea mays); [21],5
same,"Plant response rating, Corn",corn (Zea mays); [22],10
same,"Plant response rating, Corn",corn (Zea mays); [23],45
same,"Plant response rating, Ducksalad (0 to 100 scale, 0 is no effect, 100 is complete control)",[4],80
same,"Plant response rating, Barnyardgrass (0 to 100 scale, 0 is no effect, 100 is complete control)",[5],75
same,"Plant response rating, Foxtail, Giant",[6]; [16],15
same,"Plant response rating, Foxtail, Giant",[6]; [17],45
same,"Plant response rating, Foxtail, Giant",[6]; [18],75
same,"Plant response rating, Foxtail, Giant",[6]; [19],100
same,"Plant response rating, Foxtail, Giant",[6]; [20],100
same,"Plant response rating, Foxtail, Giant",[6]; [21],100
same,"Plant response rating, Foxtail, Giant",[6]; [22],100
same,"Plant response rating, Foxtail, Giant",[6]; [23],100
same,"Plant response rating, Kochia",kochia (Kochia scoparia); [9],90
same,"Plant response rating, Kochia",kochia (Kochia scoparia); [10],90
same,"Plant response rating, Kochia",kochia (Kochia scoparia); [11],95
same,"Plant response rating, Kochia","kochia (Kochia scoparia); 250 g ai/ha, scale 0 to 100",95
same,"Plant response rating, Soybean",soybean (Glycine max); [16],50
same,"Plant response rating, Soybean",soybean (Glycine max); [17],75
same,"Plant response rating, Soybean",soybean (Glycine max); [18],80
same,"Plant response rating, Soybean",soybean (Glycine max); [19],80
same,"Plant response rating, Soybean",soybean (Glycine max); [20],0
same,"Plant response rating, Soybean",soybean (Glycine max); [21],35
same,"Plant response rating, Soybean",soybean (Glycine max); [22],35
same,"Plant response rating, Soybean",soybean (Glycine max); [23],40
same,"Plant response rating, Velvetleaf","[7]; 125 g ai/ha, 0 to 100 scale, 0 is no effect, 100 is complete control",100
same,Velvetleaf plant response rating,"[7]; 500 g ai/ha, visual rating on 0 to 100 scale (0 no effect, 100 complete control), approximately ten days",100
same,"Plant response rating, Crabgrass, Large",[8]; [16],20
same,"Plant response rating, Crabgrass, Large",[8]; [17],45
same,"Plant response rating, Crabgrass, Large",[8]; [18],75
same,"Plant response rating, Crabgrass, Large",[8]; [19],85
same,"Plant response rating, Crabgrass, Large",[8]; [20],100
same,"Plant response rating, Crabgrass, Large",[8]; [21],100
same,"Plant response rating, Crabgrass, Large",[8]; [22],100
same,"Plant response rating, Crabgrass, Large",[8]; [23],100
